Measured values published in patent US20020137929A1, “1 - (3-heterocyclylphenyl) isothiourea, -isourea, -guanidine and -amidine herbicidal agents” (Intellectual Property Department, BASF Aktiengesellschaft, priority 1998, published 2002).

Experiments:
ZEAMX (Corn, Field) = assay: Preemergence herbicidal evaluation; format: in vivo, Zea mays; conditions: preemergence, rated 4-5 weeks after treatment, 0-9 scale
Outline: (§1)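 Sown cups got a single aqueous acetone spray of test compound (roughly 0.0156–0.500 kg/ha) before seedlings emerged. Evaluation, 4–5 weeks on, used a 0–9 visual scale covering plant stand, vigor, size, malformation, chlorosis and general appearance compared with controls.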

ORYSAT (Rice, Tebonnet) [1] = assay: Preemergence herbicidal evaluation; format: in vivo, Oryza sativa, (L.) Tebonnet; conditions: preemergence, rated 4-5 weeks after treatment, 0-9 scale
Outline: as §1

CASOB (Sicklepod) = assay: Postemergence herbicidal evaluation; format: in vivo, Cassia obtusifolia; conditions: postemergence
Outline: (§2)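 Two-week seedlings sprayed postemergence at 40 psi; formulation: 1:1 acetone/water, 0.5% TWEEN 20; application ≈0.0156–0.500 kg/ha. Greenhouse grow-out, then 0–9 visual scoring at 4–5 weeks.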

CYPIR (Rice Flatsedge) = assay: Preemergence weed control under flooded paddy conditions; format: in vivo, Cyperus iria; conditions: rated 3-4 weeks after treatment
Outline: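 Visual injury scored 0-9 against control three to four weeks post-treatment, greenhouse-grown. Application: acetone/water (50/50) solutions dosed directly into flood water (1.5-3 cm over silt loam, planted top 0.5 cm), roughly 0.0313 to 0.500 kg/ha active ingredient.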

[2] = tested on: GLXMAW (Soybean, Williams); assay: Preemergence herbicidal evaluation; format: in vivo, Glycine max, (L.) Merr. cv Williams; conditions: preemergence, rated 4-5 weeks after treatment, 0-9 scale
Outline: as §1

MOOVA (Monochoria) = assay: Preemergence weed control under flooded paddy conditions; format: in vivo, Monochoria vaginalis; conditions: rated 3-4 weeks after treatment
Outline: (§3)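 Herbicidal effect is scored visually on a 0-9 scale against an untreated control, three to four weeks after compounds are pipetted into the flood water (1.5 to 3 cm deep) over seeds planted in silt loam at 0.5 cm depth. Rates: about 0.0313 to 0.500 kg/ha.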

[3] = tested on: SAGPY (Arrowhead (Pygmaea)); assay: as above; format: in vivo, Sagittaria pygmaea; conditions: rated 3-4 weeks after treatment
Outline: as §3

CYPSE (Flatsedge) = assay: Postemergence weed control under flooded paddy conditions; format: in vivo, Cyperus serotinus; conditions: postemergence weeds, rated 3 to 4 weeks after treatment
Outline: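 Flood-water application, about 0.0313–0.500 kg/ha a.i. in aqueous/acetone 50/50 v/v; water depth 1.5–3 cm throughout. Weeds 3–5 cm, rice 1.5–2.5 leaf. Greenhouse; 0–9 visual rating vs control at 3–4 wk.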

SETVI (Foxtail, Green) = assay: Preemergence herbicidal evaluation; format: in vivo, Setaria viridis; conditions: preemergence, rated 4-5 weeks after treatment, 0-9 scale
Outline: as §1

[4] = tested on: CHEAL (Lambsquarters, Common); assay: Postemergence herbicidal evaluation; format: in vivo, Chenopodium album; conditions: postemergence
Outline: as §2

ECHCG (Barnyardgrass) = assay: Postemergence herbicidal evaluation; format: in vivo, Echinochloa crus-galli; conditions: postemergence
Outline: as §2

GALAP (Galium) = assay: Preemergence herbicidal evaluation; format: in vivo, Galium aparine; conditions: preemergence, rated 4-5 weeks after treatment, 0-9 scale
Outline: as §1

ORYSAT (Rice, Tebonnet) [5] = assay: Postemergence herbicidal evaluation; format: in vivo, Oryza sativa, (L.) Tebonnet; conditions: postemergence
Outline: as §2

[6] = tested on: TRZAWR (Wheat, Winter, cv Riband); assay: Preemergence herbicidal evaluation; format: in vivo, Triticum aestivum; conditions: preemergence, rated 4-5 weeks after treatment, 0-9 scale
Outline: as §1

CCOC(=O)CN1C(=O)C(CC(=O)OC(C)C(=O)OCC)S/C1=N/c1cc(-n2c(=O)cc(C(F)(F)F)n(C)c2=O)c(F)cc1Cl (stereo not shown) [Compound 87]
ZEAMX rating (ZEAMX (Corn, Field); 0.1250 kg/ha): 0.0
ZEAMX rating (ZEAMX (Corn, Field); 0.2500 kg/ha): 0.0
ZEAMX rating (ZEAMX (Corn, Field); 0.5000 kg/ha): 1.0
ORYSAT rating (ORYSAT (Rice, Tebonnet) [1]; 0.1250 kg/ha): 0.0
ORYSAT rating (ORYSAT (Rice, Tebonnet) [1]; 0.2500 kg/ha): 0.0
ORYSAT rating (ORYSAT (Rice, Tebonnet) [1]; 0.5000 kg/ha): 0.0
CASOB herbicidal rating (CASOB (Sicklepod); rate 0.0156 kg/ha): 0.0
CASOB herbicidal rating (CASOB (Sicklepod); rate 0.0313 kg/ha): 0.0
CASOB herbicidal rating (CASOB (Sicklepod); rate 0.0625 kg/ha): 0.0
CASOB herbicidal rating (CASOB (Sicklepod); rate 0.1250 kg/ha): 2.0
CASOB herbicidal rating (CASOB (Sicklepod); rate 0.2500 kg/ha): 9.0
CYPIR herbicidal effect rating (CYPIR (Rice Flatsedge); 0.0313 kg/ha): 5.0
CYPIR herbicidal effect rating (CYPIR (Rice Flatsedge); 0.0625 kg/ha): 5.0
CYPIR herbicidal effect rating (CYPIR (Rice Flatsedge); 0.1250 kg/ha): 5.0
CYPIR herbicidal effect rating (CYPIR (Rice Flatsedge); 0.2500 kg/ha): 5.0
CYPIR herbicidal effect rating (CYPIR (Rice Flatsedge); 0.5000 kg/ha): 7.0
GLXMAW rating ([2]; 0.1250 kg/ha): 0.0
GLXMAW rating ([2]; 0.2500 kg/ha): 4.0
GLXMAW rating ([2]; 0.5000 kg/ha): 5.0
MOOVA herbicidal effect rating (MOOVA (Monochoria); 0.0313 kg/ha): 9.0
MOOVA herbicidal effect rating (MOOVA (Monochoria); 0.0625 kg/ha): 9.0
MOOVA herbicidal effect rating (MOOVA (Monochoria); 0.1250 kg/ha): 9.0
MOOVA herbicidal effect rating (MOOVA (Monochoria); 0.2500 kg/ha): 9.0
MOOVA herbicidal effect rating (MOOVA (Monochoria); 0.5000 kg/ha): 9.0
SAGPY herbicidal effect rating ([3]; 0.0313 kg/ha): 0.0
SAGPY herbicidal effect rating ([3]; 0.0625 kg/ha): 4.0
SAGPY herbicidal effect rating ([3]; 0.1250 kg/ha): 4.0
SAGPY herbicidal effect rating ([3]; 0.2500 kg/ha): 5.0
SAGPY herbicidal effect rating ([3]; 0.5000 kg/ha): 7.0
Herbicidal rating CYPSE (CYPSE (Flatsedge); Rate 0.0313 kg/ha): 0.0
Herbicidal rating CYPSE (CYPSE (Flatsedge); Rate 0.0625 kg/ha): 0.0
Herbicidal rating CYPSE (CYPSE (Flatsedge); Rate 0.1250 kg/ha): 5.0
Herbicidal rating CYPSE (CYPSE (Flatsedge); Rate 0.2500 kg/ha): 5.0
Herbicidal rating CYPSE (CYPSE (Flatsedge); Rate 0.5000 kg/ha): 5.0
SETVI rating (SETVI (Foxtail, Green); 0.1250 kg/ha): 0.0
SETVI rating (SETVI (Foxtail, Green); 0.2500 kg/ha): 0.0
SETVI rating (SETVI (Foxtail, Green); 0.5000 kg/ha): 9.0
CHEAL herbicidal rating ([4]; rate 0.0156 kg/ha): 0.0
CHEAL herbicidal rating ([4]; rate 0.0313 kg/ha): 0.0
CHEAL herbicidal rating ([4]; rate 0.0625 kg/ha): 3.0
CHEAL herbicidal rating ([4]; rate 0.1250 kg/ha): 4.0
CHEAL herbicidal rating ([4]; rate 0.2500 kg/ha): 9.0
ECHCG herbicidal rating (ECHCG (Barnyardgrass); rate 0.0156 kg/ha): 0.0
ECHCG herbicidal rating (ECHCG (Barnyardgrass); rate 0.0313 kg/ha): 0.0
ECHCG herbicidal rating (ECHCG (Barnyardgrass); rate 0.0625 kg/ha): 2.0
ECHCG herbicidal rating (ECHCG (Barnyardgrass); rate 0.1250 kg/ha): 9.0
ECHCG herbicidal rating (ECHCG (Barnyardgrass); rate 0.2500 kg/ha): 9.0
GALAP rating (GALAP (Galium); 0.1250 kg/ha): 0.0
GALAP rating (GALAP (Galium); 0.2500 kg/ha): 0.0
GALAP rating (GALAP (Galium); 0.5000 kg/ha): 7.0
ORYSAT herbicidal rating (ORYSAT (Rice, Tebonnet) [5]; rate 0.0156 kg/ha): 0.0
ORYSAT herbicidal rating (ORYSAT (Rice, Tebonnet) [5]; rate 0.0313 kg/ha): 0.5
ORYSAT herbicidal rating (ORYSAT (Rice, Tebonnet) [5]; rate 0.0625 kg/ha): 1.0
ORYSAT herbicidal rating (ORYSAT (Rice, Tebonnet) [5]; rate 0.1250 kg/ha): 1.5
ORYSAT herbicidal rating (ORYSAT (Rice, Tebonnet) [5]; rate 0.2500 kg/ha): 4.0
TRZAWR rating ([6]; 0.1250 kg/ha): 0.0
TRZAWR rating ([6]; 0.2500 kg/ha): 0.0
TRZAWR rating ([6]; 0.5000 kg/ha): 1.0
